Assay results published in a melting point compilation (Tetko et al.).

settings: a range is the spread between reports

Q: For `CN1CCCC1=O`, which melting point is on record?
A: -24 to -23 °C

Q: Which melting point does the source give for `CN(C)C(=O)C(c1ccccc1)c1ccccc1` here?
A: 134 to 135 °C

Q: Which melting point does the source give for `CCC1(C)CC1` here?
A: -130 °C

Q: Which melting point does the source give for `CCS` here?
A: -148 °C

Q: With `O=C(/C=C1\Cc2ccccc21)c1ccccc1` as the compound, how does the melting point read?
A: 50 to 55 °C

Q: Which melting point does the source give for `N#Cc1ccccc1[N+](=O)[O-]` here?
A: 108 to 109 °C

Q: For `O=C(O)COc1ccccc1`, which melting point is on record?
A: 98.5 to 100 °C

Q: Which melting point does the source give for `CC(C)(C)c1cc(C=O)cc(C(C)(C)C)c1O` here?
A: 186 to 188 °C

Q: Which melting point does the source give for `Cc1cc(Br)ccc1O` here?
A: 64 to 64.7 °C

Q: With `CCCCCCCCCCO` as the compound, how does the melting point read?
A: 6 to 7 °C

Q: With `ClCBr` as the compound, how does the melting point read?
A: -88 to -87.9 °C

Q: With `OCc1cc(Br)ccc1O` as the compound, how does the melting point read?
A: 109 to 113 °C

Q: For `ClC(Cl)(Cl)Cl`, which melting point is on record?
A: -23 to -22.9 °C

Q: Which melting point does the source give for `O=S1(=O)CCCC1` here?
A: 27 to 27.6 °C

Q: Which melting point does the source give for `N#Cc1ccccc1-c1ccccc1` here?
A: 38 to 41 °C

Q: With `CCCCCCCCCCCCCCCC(=O)OC(C)C` as the compound, how does the melting point read?
A: 12 to 13.5 °C

Q: With `CC12CCC3c4ccc(O)cc4CCC3C1CC(O)C2O` (configuration not stated) as the compound, how does the melting point read?
A: 281 to 282 °C

Q: Which melting point does the source give for `CCCCCCCN` here?
A: -23 to -18 °C

Q: For `CCOc1ccc2ccccc2c1`, which melting point is on record?
A: 36 to 37.5 °C

Q: Which melting point does the source give for `CC1(C)C(=O)NC(=O)N1CO` here?
A: 100 to 105 °C

Q: Which melting point does the source give for `CCC(CC)C(C)C` here?
A: -115 °C

Q: For `O=C(O)c1ccccc1N=Nc1ccc(O)cc1`, which melting point is on record?
A: 205 to 206 °C

Q: For `CCCCCCCCCCCCCCCCCCCCCCCC`, which melting point is on record?
A: 51 to 54 °C

Q: Which melting point does the source give for `COc1ccc(O)cc1OC` here?
A: 81 to 83 °C

Q: For `CC(C)=CCN1CCC2(C)c3cc(O)ccc3CC1C2C` (configuration not stated), which melting point is on record?
A: 146 °C

Q: Which melting point does the source give for `N#CCCc1ccccc1` here?
A: -2 to -1 °C

Q: Which melting point does the source give for `CCC1CCCCC1` here?
A: -111 °C

Q: For `CCCOC(=O)c1ccc(N)cc1`, which melting point is on record?
A: 74 to 75 °C

Q: Which melting point does the source give for `O=Cc1cc(Cl)ccc1O` here?
A: 100 to 101 °C

Q: Which melting point does the source give for `O=Cc1ccccc1[N+](=O)[O-]` here?
A: 43.5 to 46 °C

Q: Which melting point does the source give for `CC1CCC(C)C1C` (configuration not stated) here?
A: -116 to -112 °C

Q: With `CC(=O)c1ccco1` as the compound, how does the melting point read?
A: 29 to 33 °C

Q: With `c1ccc2cnncc2c1` as the compound, how does the melting point read?
A: 90.5 to 91 °C

Q: Which melting point does the source give for `CCCCCCCCCCCCCCCCS` here?
A: 19 to 21 °C

Q: Which melting point does the source give for `C=CCCCCCCCCCCCC` here?
A: -13 to -12 °C

Q: For `Cc1cc(C2(c3cc(C)c(O)c(Br)c3)OS(=O)(=O)c3ccccc32)cc(Br)c1O`, which melting point is on record?
A: 241 to 242 °C

Q: With `O=C(C=Cc1ccccc1)OCc1ccccc1` as the compound, how does the melting point read?
A: 35 to 39 °C

Q: With `NCCCCCCO` as the compound, how does the melting point read?
A: 56 to 57 °C

Q: For `OC1CCc2ccccc21` (configuration not stated), which melting point is on record?
A: 52 to 54.8 °C

Q: Which melting point does the source give for `NNC(=O)c1ccccc1[N+](=O)[O-]` here?
A: 121 to 124 °C

Q: With `COc1ccc(N)cc1Cl` as the compound, how does the melting point read?
A: 50 to 52.5 °C

Q: For `c1ccc2c(c1)Cc1ccccc1O2`, which melting point is on record?
A: 100 to 102 °C

Q: Which melting point does the source give for `CC1CC1` here?
A: -177 °C

Q: Which melting point does the source give for `O=[N+]([O-])c1ccc(CO)cc1` here?
A: 94 to 96.5 °C

Q: With `c1ccc2c(c1)Nc1ccccc1S2` as the compound, how does the melting point read?
A: 184 to 188 °C

Q: Which melting point does the source give for `C1COCOC1` here?
A: -45 to -42 °C

Q: For `Cc1ccc(Cl)cc1N`, which melting point is on record?
A: 23 to 26 °C

Q: With `COc1cccc(OC)c1O` as the compound, how does the melting point read?
A: 54 to 56.5 °C

Q: For `CCCc1cc(O)nc(S)n1`, which melting point is on record?
A: 219 to 220 °C

Q: Which melting point does the source give for `CC(=O)OC1CCC2(C)C(CC(=O)C3C4CCC(=O)C4(C)CCC32)C1` (configuration not stated) here?
A: 164 to 165 °C

Q: Which melting point does the source give for `Nc1ccccn1` here?
A: 57.5 to 58 °C

Q: For `CCOCCOC(C)=O`, which melting point is on record?
A: -62 to -61 °C

Q: Which melting point does the source give for `O=C(O)CCI` here?
A: 81.5 to 82 °C

Q: Which melting point does the source give for `ClCc1ccc(Cl)cc1` here?
A: 28 to 31 °C

Q: Which melting point does the source give for `CCOC(=O)c1cccnc1` here?
A: 8.5 to 9 °C

Q: Which melting point does the source give for `CCC(C)=NO` here?
A: -30 to -29.5 °C

Q: For `Cc1ccc(Cl)cc1Cl`, which melting point is on record?
A: -13.5 to -13 °C

Q: With `OC/C=C\CO` as the compound, how does the melting point read?
A: 4 to 7 °C

Q: Which melting point does the source give for `CCOC(=O)Cc1ccccc1` here?
A: -29.4 to -29 °C

Q: For `CCOC(=O)NCCOc1ccc(Oc2ccccc2)cc1`, which melting point is on record?
A: 53 to 53.5 °C

Q: Which melting point does the source give for `Cc1ccnc(N)n1` here?
A: 160 °C

Q: For `Sc1ccccn1`, which melting point is on record?
A: 127 to 129 °C

Q: With `Nc1cnc2ccccc2c1` as the compound, how does the melting point read?
A: 91.5 to 94 °C

Q: For `CC(C)CC(C)(C)C`, which melting point is on record?
A: -107 °C

Q: Which melting point does the source give for `CCN1C(=O)C=CC1=O` here?
A: 44 to 45.5 °C

Q: For `O=C(O)CC(O)C(=O)O` (configuration not stated), which melting point is on record?
A: 130 to 132 °C

Q: For `N#Cc1ccccc1Br`, which melting point is on record?
A: 55 to 55.5 °C

Q: Which melting point does the source give for `CCC(=O)O` here?
A: -21.1 to -20.7 °C

Q: Which melting point does the source give for `Cc1cc(C)c(Br)cc1C` here?
A: 71 to 73 °C

Q: For `Clc1cc(Cl)c(-c2ccccc2)cc1Cl`, which melting point is on record?
A: 76 to 78 °C

Q: With `c1ccc2c(c1)CCc1ccccc1-2` as the compound, how does the melting point read?
A: 34 to 34.5 °C

Q: Which melting point does the source give for `O=C(c1ccc(F)cc1)c1ccc(F)cc1` here?
A: 104 to 108 °C

Q: With `CCOC(=O)c1ccccn1` as the compound, how does the melting point read?
A: 1 to 2 °C

Q: Which melting point does the source give for `CCC(=O)c1cc(O)ccc1O` here?
A: 96.5 to 98 °C

Q: Which melting point does the source give for `CCC(=O)OC` here?
A: -88 to -87.5 °C

Q: For `O=C(O)c1cccnc1`, which melting point is on record?
A: 237 to 238 °C

Q: Which melting point does the source give for `CCCC(=O)OCC` here?
A: -98 to -93 °C

Q: With `O=C(O)c1cccc([N+](=O)[O-])c1` as the compound, how does the melting point read?
A: 141 to 142 °C

Q: Which melting point does the source give for `CN1C(=O)C(=O)c2ccccc21` here?
A: 131 to 132 °C

Q: Which melting point does the source give for `O=C(O)CCCCCCCCCCCCCCCCCCC(=O)O` here?
A: 126 to 127 °C

Q: With `O=C(Cl)N(c1ccccc1)c1ccccc1` as the compound, how does the melting point read?
A: 83 to 84 °C

Q: Which melting point does the source give for `COc1ccc(OC)cc1` here?
A: 56 to 60 °C

Q: For `CCN1C(=O)c2ccccc2C1=O`, which melting point is on record?
A: 76 to 79 °C

Q: Which melting point does the source give for `CC12CCC(=O)C=C1CCC1C2CCC2(C)C1CCC2(C)O` (configuration not stated) here?
A: 163 to 164 °C

Q: With `COc1ccc([N+](=O)[O-])cc1N` as the compound, how does the melting point read?
A: 117 to 118 °C

Q: Which melting point does the source give for `C=C(C)CC(C)(C)C` here?
A: -94 to -93 °C

Q: For `O=C(O)c1ccccc1-c1c2cc(Br)c(=O)c(Br)c-2oc2c(Br)c(O)c(Br)cc12`, which melting point is on record?
A: 296 to 300 °C

Q: Which melting point does the source give for `N#Cc1c(F)c(F)c(F)c(C#N)c1F` here?
A: 77 to 79 °C

Q: For `COc1c(F)c(F)c(F)c(F)c1F`, which melting point is on record?
A: -38 to -37 °C

Q: For `Cc1ccccc1Br`, which melting point is on record?
A: -28 to -27 °C

Q: Which melting point does the source give for `O=C(O)c1cccc(Br)c1` here?
A: 155 to 157 °C

Q: Which melting point does the source give for `CC(=O)Oc1ccccc1[N+](=O)[O-]` here?
A: 40 to 40.5 °C

Q: Which melting point does the source give for `C=CCC` here?
A: -185 °C

Q: Which melting point does the source give for `CCOC(=O)C(O)(c1ccc(Cl)cc1)c1ccc(Cl)cc1` here?
A: 36 to 37 °C

Q: Which melting point does the source give for `OC1CCCCC1O` (configuration not stated) here?
A: 100 to 102 °C

Q: Which melting point does the source give for `O=C(O)Cc1sc(-c2ccccc2)nc1-c1ccc(Cl)cc1` here?
A: 161 to 162 °C

Q: Which melting point does the source give for `COc1ccccc1` here?
A: -37.5 to -37 °C

Q: With `NNc1ccccc1` as the compound, how does the melting point read?
A: 19 to 19.6 °C

Q: For `CCCCCCCCCCCCCCBr`, which melting point is on record?
A: 5 to 5.6 °C

Q: For `O=C(O)CCCCCCCC(=O)O`, which melting point is on record?
A: 102 to 106 °C

Q: For `COC(=O)c1ccc(C#N)cc1`, which melting point is on record?
A: 62 to 67 °C

Q: For `CF`, which melting point is on record?
A: -143 to -142 °C

Q: Which melting point does the source give for `O=C(O)C(S)C(S)C(=O)O` (configuration not stated) here?
A: 193 to 197 °C

Q: Which melting point does the source give for `O=Cc1ccc(O)cc1O` here?
A: 135 to 136 °C

Q: Which melting point does the source give for `CCCCCCOC=O` here?
A: -63 to -62.6 °C

Q: With `O=C(O)Cc1ccc(F)cc1` as the compound, how does the melting point read?
A: 83 to 86 °C

Q: With `O=C(Oc1ccccc1)Oc1ccccc1` as the compound, how does the melting point read?
A: 79 to 83 °C

Q: Which melting point does the source give for `Cc1ccc(C(C)C)cc1` here?
A: -68.9 to -68 °C

Q: With `CS` as the compound, how does the melting point read?
A: -123 to -121 °C

Q: With `CC(C(=O)O)(c1ccccc1)c1ccccc1` as the compound, how does the melting point read?
A: 173 to 176 °C

Q: For `CCOC(=O)c1ccc(C(=O)OCC)cc1`, which melting point is on record?
A: 44 to 45 °C

Q: Which melting point does the source give for `N#Cc1ccccc1C=O` here?
A: 104 to 108 °C

Q: For `OCc1c[nH]c2ccccc12`, which melting point is on record?
A: 97.5 to 98 °C

Q: For `CCCC#CCCC`, which melting point is on record?
A: -103 to -101 °C

Q: For `CCCCBr`, which melting point is on record?
A: -112 °C

Q: For `O=C(Cl)c1ccc(Cl)cc1`, which melting point is on record?
A: 12 to 16 °C

Q: With `CCOc1ccc(OCC)cc1` as the compound, how does the melting point read?
A: 70 to 72 °C

Q: For `Clc1ccc(C(c2ccc(Cl)cc2)C(Cl)(Cl)Cl)cc1`, which melting point is on record?
A: 108 to 110 °C

Q: For `CC(=O)Oc1ccc(OC(C)=O)cc1`, which melting point is on record?
A: 121 to 125 °C

Q: With `O=S(=O)(Cl)c1ccc(Br)cc1` as the compound, how does the melting point read?
A: 75 to 76 °C

Q: With `O=C(Oc1ccc2ccccc2c1)c1ccccc1` as the compound, how does the melting point read?
A: 105 to 107 °C

Q: For `NC(=O)Oc1ccccc1`, which melting point is on record?
A: 150 to 151 °C
